The IC50 is the point on the concentration scale where inhibition reaches its midpoint.

Each structure is given as a SMILES string.

The target of one assay is T1, Recombinant human Chk1 (GST-Chk1) (Homo sapiens, UniProt O14757).
T1 construct: made in house; host or cells: insect cells (baculovirus, Bac-to-Bac system)
T1 sequence (O14757 1-476): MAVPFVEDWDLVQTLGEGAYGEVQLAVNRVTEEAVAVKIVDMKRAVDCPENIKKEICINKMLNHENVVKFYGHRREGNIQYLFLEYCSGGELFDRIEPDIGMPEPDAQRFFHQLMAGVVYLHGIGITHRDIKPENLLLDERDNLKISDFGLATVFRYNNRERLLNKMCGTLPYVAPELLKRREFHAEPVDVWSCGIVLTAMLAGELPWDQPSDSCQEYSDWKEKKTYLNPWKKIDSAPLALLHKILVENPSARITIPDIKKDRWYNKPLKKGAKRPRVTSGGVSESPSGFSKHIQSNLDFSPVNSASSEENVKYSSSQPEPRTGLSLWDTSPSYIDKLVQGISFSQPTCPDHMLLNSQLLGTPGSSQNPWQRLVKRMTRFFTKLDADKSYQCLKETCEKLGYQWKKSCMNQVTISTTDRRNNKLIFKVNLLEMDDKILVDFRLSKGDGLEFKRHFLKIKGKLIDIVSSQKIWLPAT
In words: Chk1 DELFIA Kinase Assay. In kind it is biochemical. The settings on record: GST-Chk1 in vitro kinase assay, bound given in μM. The method, then: Recombinant human Chk1 was expressed as a fusion protein with glutathione S-transferase at the amino-terminus (GST-Chk1) using standard baculovirus vectors and (Bac-to-Bac®) insect cell expression system purchased from GIBCO™ Invitrogen. Recombinant protein expressed in insect cells was purified using glutathione sepharose (Amersham Biotech) using standard procedures described by the manufacturer.
Chk1 DELFIA® Kinase Assay:
Assays (25 μL) utilized 2 nM GST-Chk1 containing 10 mM Tris, pH 7.5, 20% glycerol, 50 mM sodium chloride (NaCl), 0.01% Surfact-Amps® 20, 1 μM peptide stubstrate (Biotin-GLYRSPSMPEN-amide) (SEQ ID NO: 2), 01.% BSA, 2 mM DTT, 4% DMSO, 600 μM ATP, 10 mM MgCl2 and reacted for 50 minutes at room temperature. Reactions were terminated with 100 μL of Stop buffer containing 1% BSA, 10 mM Tris, pH 8.0, 150 mM NaCl, 100 mM EDTA. Stopped reactions (100 μL) were transferred to 96 well NeutrAvidin plates (Pierce) to capture the biotin-peptide substrate during a 30 minute room temperature incubation. Wells were washed and reacted with 100 μL PerkinElmer Wallac Assay Buffer containing 21.5 ng/ml anti-phospho-Ser216-Cdc25c rabbit polyclonal antibody from Cell Signaling Technology (Beverly, Mass.) and 292 ng/ml europium labeled anti-rabbit-IgG for 1 hour at room temperature. Wells were washed and europium released from the bound antibody by addition of Enhancement Solution (100 μL) (PerkinElmer Wallac) and detected using a Perkin Elmer Wallac Envison™ 2100 multilabel reader using standard manufacturer settings.
`CCn1c(=O)c2c(C)[nH]nc2c2cc(-c3ccc(CN4CCc5ccccc5C4)s3)ccc21` [Compound I-48, 8-[5-(3,4-dihydroisoquinolin-2(1H)-ylmethyl)-2-thienyl]-5-ethyl-3-methyl-2,5-dihydro-4H-pyrazolo[4,3-c]quinolin-4-one]: the IC50 is < 1 µM.

With `CCn1c(=O)c2c(C)[nH]nc2c2cc(-c3cn[nH]c3)ccc21` [Compound I-52, 5-ethyl-3-methyl-8-(1H-pyrazol-4-yl)-2,5-dihydro-4H-pyrazolo[4,3-c]quinolin-4-one], the 50% inhibitory concentration (IC50) is < 1 µM.

The same assay, now with this note: GST-Chk1 kinase assay, bound given in nM.
On to `CCN(CC)Cc1ccc(-c2ccc3c(c2)c2n[nH]c(C)c2c(=O)n3CC)s1` [Compound I-46, 8-{5-[(diethylamino)methyl]-2-thienyl}-5-ethyl-3-methyl-2,5-dihydro-4H-pyrazolo[4,3-c]quinolin-4-one], for which the IC50 is < 0.5 µM.

As to `CCn1c(=O)c2c(C)[nH]nc2c2cc(/C=C/CN(C)Cc3ccccc3)ccc21` [Compound I-45, 8-{(1E)-3-[benzyl(methyl)amino]prop-1-en-1-yl}-5-ethyl-3-methyl-2,5-dihydro-4H-pyrazolo[4,3-c]quinolin-4-one], the IC50 was < 0.5 µM.

For `CCn1c(=O)c2c(C)[nH]nc2c2cc(C#CCN(C)C)ccc21` [Compound I-11, 8-[3-(dimethylamino)prop-1-yn-1-yl]-5-ethyl-3-methyl-2,5-dihydro-4H-pyrazolo[4,3-c]quinolin-4-one], the IC50 is < 0.5 µM.

Regarding `CCn1c(=O)c2c(C)[nH]nc2c2cc(C#CCN(C(C)C)C(C)(C)C)ccc21` [Compound I-38, 8-{3-[tert-butyl(isopropyl)amino]prop-1-yn-1-yl}-5-ethyl-3-methyl-2,5-dihydro-4H-pyrazolo[4,3-c]quinolin-4-one], the IC50 is < 0.5 µM.

Turning to `CCn1c(=O)c2c(C)[nH]nc2c2cc(-c3ccc(CN4CC[C@H](O)C4)s3)ccc21` [Compound I-83, 5-ethyl-8-(5-{[(3S)-3-hydroxypyrrolidin-1-yl]methyl}-2-thienyl)-3-methyl-2,5-dihydro-4H-pyrazolo[4,3-c]quinolin-4-one], the IC50 is < 0.5 µM.

On to `CCn1c(=O)c2c(C)[nH]nc2c2cc(-c3ccc(CN(C)C)s3)ccc21` [Compound I-50, 8-{5-[(dimethylamino)methyl]-2-thienyl}-5-ethyl-3-methyl-2,5-dihydro-4H-pyrazolo[4,3-c]quinolin-4-one], for which the IC50 is < 0.5 µM.

Regarding `CCn1c(=O)c2c(C)[nH]nc2c2cc(/C=C/CN3[C@H](C)CC[C@@H]3C)ccc21` [Compound I-41, 8-{(1E)-3-[(2R,5S)-2,5-dimethylpyrrolidin-1-yl]prop-1-en-1-yl}-5-ethyl-3-methyl-2,5-dihydro-4H-pyrazolo[4,3-c]quinolin-4-one], the concentration for half-maximal inhibition (IC50) was < 0.5 µM.

Take `Cc1[nH]nc2c1c(=O)n(C)c1ccc(C#CCN3CCCC3)cc21` [Compound I-12, 3,5-dimethyl-8-(3-pyrrolidin-1-ylprop-1-yn-1-yl)-2,5-dihydro-4H-pyrazolo[4,3-c]quinolin-4-one]: the IC50 is < 0.5 µM.

As to `CCn1c(=O)c2c(C)[nH]nc2c2cc(C#CCN3CCOCC3)ccc21` [Compound I-7, 5-ethyl-3-methyl-8-(3-morpholin-4-ylprop-1-yn-1-yl)-2,5-dihydro-4H-pyrazolo[4,3-c]quinolin-4-one], the IC50 was < 0.5 µM.

In the case of `CCn1c(=O)c2c(C)[nH]nc2c2cc(-c3ccc(CN4CCc5ccccc5C4)s3)ccc21` [Compound I-48, 8-[5-(3,4-dihydroisoquinolin-2(1H)-ylmethyl)-2-thienyl]-5-ethyl-3-methyl-2,5-dihydro-4H-pyrazolo[4,3-c]quinolin-4-one], the IC50 was > 0.5 µM.

On to `Cc1[nH]nc2c1c(=O)n(CCF)c1ccc(C#CCN3CCCC3)cc21` [Compound I-10, 5-(2-fluoroethyl)-3-methyl-8-(3-pyrrolidin-1-ylprop-1-yn-1-yl)-2,5-dihydro-4H-pyrazolo[4,3-c]quinolin-4-one], for which the IC50 is < 0.5 µM.

Regarding `CCn1c(=O)c2c(C)[nH]nc2c2cc(-c3cn[nH]c3)ccc21` [Compound I-52, 5-ethyl-3-methyl-8-(1H-pyrazol-4-yl)-2,5-dihydro-4H-pyrazolo[4,3-c]quinolin-4-one], the concentration for half-maximal inhibition (IC50) is > 0.5 µM.

For `Cc1[nH]nc2c1c(=O)n(CC(C)C)c1ccc(C#CCN3CCCC3)cc21` [Compound I-16, 5-isobutyl-3-methyl-8-(3-pyrrolidin-1-ylprop-1-yn-1-yl)-2,5-dihydro-4H-pyrazolo[4,3-c]quinolin-4-one], the IC50 is < 0.5 µM.

Consider `CCn1c(=O)c2c(C)[nH]nc2c2cc(C#CCN3[C@H](C)CC[C@@H]3C)ccc21` [Compound I-3, 8-{3-[(2R,5S)-2,5-dimethylpyrrolidin-1-yl]prop-1-yn-1-yl}-5-ethyl-3-methyl-2,5-dihydro-4H-pyrazolo[4,3-c]quinolin-4-one], for which the IC50 was < 0.5 µM.

For the compound `CCN(CC)CC#Cc1ccc2c(c1)c1n[nH]c(C)c1c(=O)n2CC` [Compound I-1, 8-[3-(diethylamino)prop-1-yn-1-yl]-5-ethyl-3-methyl-2,5-dihydro-4H-pyrazolo[4,3-c]quinolin-4-one], the IC50 is < 0.5 µM.

For the compound `CCn1c(=O)c2c(C)[nH]nc2c2cc(C#CCN3CCC(F)(F)C3)ccc21` [Compound I-30, 8-[3-(3,3-difluoropyrrolidin-1-yl)prop-1-yn-1-yl]-5-ethyl-3-methyl-2,5-dihydro-4H-pyrazolo[4,3-c]quinolin-4-one], the concentration for half-maximal inhibition (IC50) is < 0.5 µM.

Consider `C#Cc1ccc2c(c1)c1n[nH]c(C)c1c(=O)n2C` [Compound I-22, 8-ethynyl-3,5-dimethyl-2,5-dihydro-4H-pyrazolo[4,3-c]quinolin-4-one], for which the IC50 is < 0.5 µM.

For `CCn1c(=O)c2c(C)[nH]nc2c2cc(C#CCN3[C@H](C)CC[C@H]3C)ccc21` (racemic) [Compound I-2, 8-{3-[(2S,5S)-2,5-dimethylpyrrolidin-1-yl]prop-1-yn-1-yl}-5-ethyl-3-methyl-2,5-dihydro-4H-pyrazolo[4,3-c]quinolin-4-one], the IC50 is < 0.5 µM.

For `CCn1c(=O)c2c(C)[nH]nc2c2cc(-c3ccc(CN4CCCC4)s3)ccc21` [Compound I-53, 5-ethyl-3-methyl-8-[5-(pyrrolidin-1-ylmethyl)-2-thienyl]-2,5-dihydro-4H-pyrazolo[4,3-c]quinolin-4-one], the IC50 was < 0.5 µM.

Take `CCn1c(=O)c2c(C)[nH]nc2c2cc(C#CCN3CCC3)ccc21` [Compound I-31, 8-(3-azetidin-1-ylprop-1-yn-1-yl)-5-ethyl-3-methyl-2,5-dihydro-4H-pyrazolo[4,3-c]quinolin-4-one]: the IC50 was < 0.5 µM.

For the compound `Cc1[nH]nc2c1c(=O)n(CCO)c1ccc(C#CCN3CCCC3)cc21` [Compound I-17, 5-(2-hydroxyethyl)-3-methyl-8-(3-pyrrolidin-1-ylprop-1-yn-1-yl)-2,5-dihydro-4H-pyrazolo[4,3-c]quinolin-4-one], the IC50 was < 0.5 µM.

These data come from patent US20060035920A1, “Chk-1 inhibitors” (Millennium Pharmaceuticals, Inc., priority 2004, published 2006).
